Experimental data reported in patent publication US6365585B1, “Phosphodiesterase IV-inhibiting diazepinoindoles” (Warner-Lambert Company, priority 1998, dated 2002).

Experiments:
[1] = Metabolism in vitro of MPTDI, human hepatic microsomes (HPLC-MS profile); assay type: in vitro ADME; conditions: incubation of MPTDI with human hepatic microsomes
Method: (§1) The profile and the identification of the metabolites of MPTDI were obtained after incubation of the product with human hepatic microsomes. The results were compared with those obtained on rat hepatic microsomes. The metabolic profiles obtained by HPLC coupled to a mass spectrometer in these two species are represented in FIG. 1. In some cases, the mass spectra obtained were compared with those of reference substances synthesized by the chemical route. It is deduced therefrom that the profiles obtained on human and rat microsomes are similar: Table 1 collates the measured proportions of the metabolites for these two species.

[2] = Metabolism in vitro of MPTDI, rat hepatic microsomes (HPLC-MS profile); assay type: in vitro ADME; conditions: incubation of MPTDI with rat hepatic microsomes
Method: as §1

| Structure (SMILES) | Proportions (%) of the metabolites obtained on human hepatic microsomes [1] [%] | Proportions (%) of the metabolites obtained on rat hepatic microsomes [2] [%] | melting point [°C] |
| --- | --- | --- | --- |
| Cc1cc2c3c(c1)C(c1ccccc1)=N[C@@H](NC(=O)c1ccncc1)C(=O)N3CC2 [MPTDI, (3R)-N-(9-methyl-4-oxo-1-phenyl-3,4,6,7-tetrahydro[1,4]diazepino[6,7,1-hi]indol-3-yl)isonicotinamide, reference compound] | 79 | 38.2 |  |
| O=C(NC1N=C(c2ccccc2)c2cc(CO)cc3c2N(CC3)C1=O)c1ccncc1 (centres unmarked) [OH on 9-CH3, N-(9-hydroxymethyl-4-oxo-1-phenyl-3,4,6,7-tetrahydro[1,4]diazepino[6,7,1-hi]indol-3-yl)isonicotinamide] | 4.2 | 24.3 | 260 |
